# Test results reported in a melting point compilation (Tetko et al.; mined from patent text by program, amines drawn as free bases though some values may be those of a salt).
row,SMILES,melting point [°C]
1,CNC1CCCN(C(=O)c2ccc(NC(=O)c3ccccc3C)s2)c2ccc(Cl)cc21 (stereo unspecified),213 to 216
2,CCOC(=O)Cc1sc(Sc2nccc(C)c2C(=O)OCC)nc1C,85 to 87
3,CCCCc1nc2cncnc2[nH]1,168
4,CCOC(=O)N1CCN(C(c2ccccc2)c2ccccc2)CC1(C)Cc1ccc2c(c1)OCCO2 (stereo unspecified),153 to 155
5,N#Cc1ccccc1-c1ccc(CBr)c(Br)c1,152 to 153
6,Fc1c(F)c(F)c(CSc2ncccn2)c(F)c1F,89 to 92
7,CN(C)S(=O)(=O)c1cc(S(=O)(=O)N(C)C)c(C(Cl)=C(Cl)Cl)cc1N,238 to 239
8,N#CNC(=Nc1ccncc1)NCC(O)COc1ccc(Cl)cc1 (stereo unspecified),149 to 151
9,c1cc(-n2ccnc2)nc(-n2cnc3cc(-c4ccoc4)ccc32)c1,170 to 173
10,CS(=O)(=O)c1csc(CC(=O)C(=O)c2ccc(F)cc2)c1,174 to 175
11,CC(C(=O)n1c(=O)oc2ccccc21)C(O)c1ccccc1 (stereo unspecified),155 to 158
12,CC(C)(c1ccccc1)N1CC=C(c2ccccc2)C1=O,85 to 86
13,CCCc1nc2c(N)nc3ccccc3c2n1CCCC(N)=O,249 to 251
14,O=C(OCC1OC(n2ccc(=O)[nH]c2=O)CC1OC(=O)c1ccccc1)c1ccccc1 (stereo unspecified),223 to 225
15,O=c1[nH]c2cscc2c(=O)c2cscc12,267 to 270
16,"CCCC(=O)N(CCC)C1Cc2ccc(-c3ccc(=O)[nH]n3)cc2C1 (single isomer, unassigned; (+))",159 to 160
17,ClCCCOc1cccc2c(OCCCCl)cccc12,219
18,COC(=O)C(CO)N(Cc1ccccc1[N+](=O)[O-])S(=O)(=O)c1ccc(OC)cc1 (stereo unspecified),127 to 129
19,CCCc1ccc(-c2cc(NC(=O)C3Cc4ccccc4C3)n[nH]2)cc1,211 to 213
20,CN(C)C(=O)CCc1ccc(OCCN(C)c2nc3ccccc3o2)cc1,103 to 105
21,COc1ccc(CNC(=O)c2cnc(SC)nc2NC(C)C)cc1,176 to 177
22,C#CC(C)NC(=O)CCCCl (stereo unspecified),50 to 51
23,COc1cccc(CNc2ncnc3c2sc2nc(N(C)C)c4c(c23)CC(C)(C)OC4)c1OC,89.9 to 90.7
24,COc1ccc(-c2ccc(-c3ccc(F)cc3)nc2-c2ccc(OCc3ccccc3)cc2)cc1,114 to 115
25,CCC(COC)(OC)c1cncc(O)c1 (stereo unspecified),87 to 88
26,Cn1nc(N)c2cc3ccc(O)cc3nc21,288 to 290

row,SMILES,melting point [°C]
1,Oc1cc(Cl)c2c(C34CC5CC(CC(C5)C3)C4)noc2c1,215
2,CC(C)(C)OC(=O)CCc1nc(C(=O)OC(C)(C)C)ccc1O,172 to 174
3,CCN(CC)S(=O)(=O)c1ccc(C(CC2CCCC2)C(=O)Nc2nc3ccc(OC)nc3s2)cc1 (stereo unspecified),150 to 152
4,O=C1NC(=O)C(Sc2ccc3cc(O)ccc3c2)S1 (stereo unspecified),182 to 183
5,Cn1c(C(F)(F)F)cc(=O)n(-c2cc(OC(=O)CCC(=O)OCCCl)c(Cl)cc2F)c1=O,94 to 96
6,COCC1CN(c2ccc(OCC3CCCC3=O)cc2)C(=O)O1 (stereo unspecified),70
7,CC(C)(C)c1cc(C=C2SCN(CC#N)C2=O)cc(C(C)(C)C)c1O,186 to 188
8,CC(c1c(F)ccc(F)c1Cl)N1CCNc2ncc(I)cc21 (stereo unspecified),166
9,Nc1nc(COc2cccc(Cl)c2Cl)nc2nccnc12,216 to 218
10,CCN(C(=O)n1oc(C)c(Cl)c1=O)c1ccc(Cl)cc1Cl,101 to 102
11,CC(C)(C)CC(NC(=O)c1ccc(Br)cc1)NC(=NS(=O)(=O)C(F)(F)F)Nc1cccnc1 (stereo unspecified),185 to 186
12,CC(=O)c1cc([N+](=O)[O-])c(N)c2c1CCCC2,170 to 172
13,Cc1nc(-c2cc(Cl)ccc2Cl)n2c1nnc1cc(F)ccc12,186 to 190
14,Oc1ccc(Sc2ccc(F)cc2)c2ccccc12,195 to 198
15,CCCCOc1ncc(-c2ccco2)cc1-c1nc2c(CC)n(CCOC)nc2c(=O)[nH]1,154 to 155
16,COc1ccc(CN(C)CCCCc2ccc(NC(=O)c3cccc4c(=O)c5cccc(OC)c5[nH]c34)cc2)cc1OC,157
17,CN(C)c1cccc2nc3cccc(C(=O)O)c3nc12,186 to 188
18,CS(=O)(=O)Nc1cccc(C=C2c3ccccc3CCc3ccccc32)c1,66.3
19,COc1cc(C(=O)c2ccc(C(F)(F)F)cc2)cc(N)c1OC,95 to 96
20,COc1cc(CN(C)c2ncc(C(=O)NO)cn2)cc(C(=O)Nc2ccc(Cl)c(-c3nc4cc(N(C)C)ccc4[nH]3)c2)c1,207 to 208
21,CCC(CC)Nc1cc(C)nc2c1ncn2-c1c(C)cc(C)cc1C,78 to 80
22,Cn1c(CO)cc2ccccc21,92.8
23,O=c1c2c(Cc3cccc(C(F)(F)F)c3)n[nH]c2c2cccnc2n1-c1ccccc1,303 to 305
24,CNc1cc(C(C)=O)ccc1OCCCN1CCC(c2noc3cc(F)ccc23)CC1,151 to 153
25,Cn1cc(C(=O)c2sc(NC(=O)c3ccncc3)nc2-c2ccco2)ccc1=O,294 to 295
26,S=CN1CCC(C(c2ccccc2)c2ccccc2)CC1,152 to 154

row,SMILES,melting point [°C]
1,CCCCCCCCCCCCN=C1SC(=CC(=O)O)C(=O)N1CCCCCCCCCCCC,71 to 72
2,CCCCc1nc2cc[nH]c(=O)c2n1Cc1ccc(-c2ccccc2-c2nnn[nH]2)cc1,167
3,Cc1ccnc(-c2nc3ccccc3[nH]2)c1,228 to 229
4,"Clc1ccc2c(c1)CCc1cccnc1C2N1CCNCC1 (single isomer, unassigned; (+))",153 to 155
5,CCOc1c(OC)cccc1-c1nc2ccc(C(=O)Cl)cc2c(=O)[nH]1,93 to 94
6,COc1cccc(C2(CC(=O)O)C(=O)Nc3ccc(Cl)cc32)c1OC (stereo unspecified),235
7,O=C(N1CC(CCl)c2c1ccc1ccccc21)C(F)(F)F (stereo unspecified),185
8,NCCc1ccc(OCCC(c2ccc(Cl)cc2)(c2ccc(Cl)cc2)c2ccc(Cl)cc2)cc1,132 to 135
9,N#Cc1ccc(N2CC(CO)OC2=O)cc1 (stereo unspecified),186
10,C=CCOc1ccc(CCNC(=O)NC)cc1OC,81 to 83
11,CC(C)(C)OC(=O)c1ccccc1-c1ccc(CNC(=S)NN)cc1,> 45
12,COc1cc(OC)c2cnc(-c3cc(C)c(OCCO)c(C)c3)nc2c1,169 to 170
13,OCC(CCc1ccc(Cl)cc1)Cn1cncn1 (stereo unspecified),40 to 45
14,CCCCn1nnnc1-c1c(O)ccc(-c2cccc(C(=O)OC)c2)c1O,93 to 97
15,Cc1ccc(NC(=O)C2CC2)c(-c2nc(C(F)(F)F)cs2)c1,155 to 156
16,CC(C)(C)OC(=O)N1CCN(CCc2ccc(Nc3ncc4c(n3)-c3ccccc3C(c3ccccc3C(F)(F)F)C4)cc2)CC1 (stereo unspecified),234 to 235
17,O=[N+]([O-])c1cc2ccccc2c2nccnc12,163 to 165
18,CCOC(=O)Nc1ccccc1C(=O)OCC,< 40
19,CC(C)NC(=O)c1cccc(-c2ccnc3c(C(=O)c4cccs4)cnn23)c1,218 to 220
20,O=S(=O)(Nc1cc(Br)nc(Br)c1)c1cccc(C(F)(F)F)c1,149 to 151
21,CCOC(=O)C(C#N)=CC=CN(C)C,134 to 135
22,CCOC(=O)C(=CNc1ccc(F)cc1F)C(=O)c1c(F)c(F)c(F)c(F)c1F,97 to 99
23,COC(=O)C(C)(C)OCc1cc2cc(Cl)ccc2n1S(=O)(=O)c1ccc2sc(C)nc2c1,132 to 134
24,CCNC(=N)NC(=O)Cc1cccc(OC)c1,108 to 110
25,Cc1ccc(O)c(Cn2c(NC3CCNC(CCN4CCOCC4)C3)nc3ccc(C=Cc4ccccc4)cc32)n1 (stereo unspecified),224
26,O=C(CC(=O)C(F)(F)F)c1ccc(Cl)cc1,66 to 67

row,SMILES,melting point [°C]
1,CCc1ccc2c(n1)C(C(N)=S)CCC2 (stereo unspecified),73 to 75
2,COc1ccccc1CNc1cc(C(=O)Nc2ccccc2)ccc1OC,177 to 179
3,C=CCCCCCCCCCOc1ccc(-c2ccc(OCCCCCCCCCCCBr)cc2)cc1,93 to 94
4,NCCCOc1ccc(OCCCN)cc1,73 to 74
5,N#Cc1ccc(-c2nc(Cl)c3c(n2)CCCC3)cc1,190
6,C=C(C)C(=O)OCCCCCCOc1ccc(C(=O)O)cc1,83
7,CCCCNCCCOc1ccc(-c2ccc(C(=O)O)cc2)cc1-c1ccc2c(c1)C(C)(C)CCC2(C)C,238
8,O=C(OCc1ccccc1)N1CCC2(CC1)CN(c1ccc(Cl)c(Cl)c1)C(=O)O2,105
9,CC(C)(C)c1ccc(C(=O)n2c3cc(O)c(O)cc3c3ccc(O)c(O)c32)cc1,234 to 236
10,CCOC(=O)C(=CNCc1cnsn1)C(=O)c1cc(F)c(F)cc1F,168 to 170
11,O=c1[nH]c2ncc(-c3ccc(F)nc3)nc2n1CC1CCOCC1,220 to 222
12,CN1CC(c2ccc(S(C)(=O)=O)cc2)=C(c2ccc(Br)cc2)C1=O,161 to 163
13,O=C1CCC(N2Cc3c(OCc4ccc(CN5CCOCC5)c(F)c4)cccc3C2=O)C(=O)N1 (stereo unspecified),263 to 265
14,CC(C)N1CCN(c2ccc(Br)cn2)CC1,76 to 78
15,CC(=O)N1CCC(Oc2c(F)c(F)c(F)c(F)c2F)CC1,60 to 65
16,O=C1CNc2ccccc2N1c1ccc(Cl)cc1,196 to 199
17,O=NN(CCCl)C(=O)NC1OC(CO)C(O)C1O (stereo unspecified),69 to 71
18,COc1ccc(CCN(C)CCOc2ccc(NC(=O)c3cc(SC)cc4c(=O)c5ccccc5[nH]c34)cc2)cc1OC,150
19,C1COCCOCCNCCOCCOCCOCCN1,0
20,CN1Cc2cc(Br)cnc2N(C)C1=O,119 to 120
21,CCOC(=O)C(=O)Nc1cccc(O)c1C(N)=O,200 to 202
22,N#CCc1ccc(NS(=O)(=O)c2cccc(Cl)c2Cl)cc1,202 to 206
23,CC(C)(C)COC(=O)Cc1cccc2c(=O)cc(C3=CCCCC3)oc12,138 to 139
